From ChEMBL document CHEMBL4406848, “Novel water soluble BODIPY compounds: Synthesis, photochemical, DNA interaction, topoisomerases inhibition and photodynamic activity properties” (Eur J Med Chem, 2019) come the findings set out here.

Each structure is given as a SMILES string. Active and inactive are the calls of the source. No cut-off for these calls is given here.

Experiment [1] concerns the target T1, DNA topoisomerase 1 (Homo sapiens) (UniProt P11387).
T1 sequence (whole entry): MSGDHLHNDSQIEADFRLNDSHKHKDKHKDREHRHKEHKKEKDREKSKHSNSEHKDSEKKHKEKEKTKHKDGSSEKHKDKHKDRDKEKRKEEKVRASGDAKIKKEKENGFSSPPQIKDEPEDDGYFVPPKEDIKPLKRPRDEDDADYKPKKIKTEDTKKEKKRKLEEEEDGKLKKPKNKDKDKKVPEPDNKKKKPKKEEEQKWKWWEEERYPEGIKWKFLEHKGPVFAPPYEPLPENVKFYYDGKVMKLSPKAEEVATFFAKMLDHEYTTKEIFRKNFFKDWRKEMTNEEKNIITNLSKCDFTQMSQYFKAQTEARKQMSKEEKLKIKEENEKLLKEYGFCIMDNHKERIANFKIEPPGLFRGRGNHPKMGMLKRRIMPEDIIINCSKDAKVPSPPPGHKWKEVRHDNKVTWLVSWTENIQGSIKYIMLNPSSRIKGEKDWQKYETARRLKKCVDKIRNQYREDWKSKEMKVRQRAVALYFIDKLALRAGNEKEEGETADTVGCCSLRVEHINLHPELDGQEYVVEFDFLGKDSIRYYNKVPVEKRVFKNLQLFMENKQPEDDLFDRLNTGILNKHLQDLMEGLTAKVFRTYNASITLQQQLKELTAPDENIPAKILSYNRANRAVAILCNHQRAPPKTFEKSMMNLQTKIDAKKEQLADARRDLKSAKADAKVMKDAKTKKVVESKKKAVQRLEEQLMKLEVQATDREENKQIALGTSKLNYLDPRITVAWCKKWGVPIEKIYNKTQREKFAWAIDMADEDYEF
Nature of the experiment: Inhibition of recombinant human topoisomerase 1 assessed as supercoiled pBR322 DNA at 25 uM incubated for 1 hr by ethidium bromide staining based agarose gel electrophoresis method relative to control. Also on record: scale not given: the % may be the effect or the level left.

Experiment [2] has as its system Calf thymus DNA. Nature of the experiment: Competitive binding affinity to calf thymus DNA assessed as change in viscosity incubated for 10 mins by viscometer. It counts as nucleic-acid assay. To be noted: Bos taurus.
For experiment [3], the system named is DNA. As to the kind of experiment: Induction of Escherichia coli plasmid pBR322 DNA cleavage assessed as increase in nicked circular DNA at 3.125 uM in presence of light irradiation and incubated for 1 hr by agarose gel electrophoresis relative to control. It counts as nucleic-acid assay.
The test system of experiment [4] is DNA. As to the kind of experiment: Induction of Escherichia coli plasmid pBR322 DNA cleavage assessed as increase in nicked circular DNA at 6.25 to 50 uM in presence of light irradiation and incubated for 1 hr by agarose gel electrophoresis. It counts as nucleic-acid assay.
Experiment [5] has as its system DNA. As to the kind of experiment: Induction of Escherichia coli plasmid pBR322 DNA cleavage assessed as decrease in supercoiled DNA at 6.25 to 50 uM in presence of light irradiation and incubated for 1 hr by agarose gel electrophoresis relative to control. It counts as nucleic-acid assay. More on the design: scale not given: the % may be the effect or the level left.

Experiment [6] concerns the target T1, DNA topoisomerase 1 (Homo sapiens). As to the kind of experiment: Inhibition of recombinant human topoisomerase 1 assessed as supercoiled pBR322 DNA at 12.5 uM incubated for 1 hr by ethidium bromide staining based agarose gel electrophoresis method relative to control. Also on record: scale not given: the % may be the effect or the level left.
The target in experiment [7] is T2, DNA topoisomerase II (Homo sapiens) (UniProt P11388+Q02880). Nature of the experiment: Inhibition of recombinant human topoisomerase 2 assessed as supercoiled DNA at 25 uM incubated for 1 hr by ethidium bromide staining based agarose gel electrophoresis method relative to control. It counts as protein assay. Also on record: scale not given: the % may be the effect or the level left.

In experiment [8] the target is T2, DNA topoisomerase II (Homo sapiens). Nature of the experiment: Inhibition of recombinant human topoisomerase 2 at 12.5 uM incubated for 1 hr by ethidium bromide staining based agarose gel electrophoresis method relative to control. It counts as protein assay.
Experiment [9] deals with HCT-116. As to the kind of experiment: Cytotoxicity against human HCT116 cells assessed as cell viability at 0.5 and 1 uM incubated for 24 hrs in dark by MTT assay. It counts as functional, cell-based.
The test system of experiment [10] is HCT-116. Nature of the experiment: Cytotoxicity against human HCT116 cells assessed as cell viability at 10 uM incubated for 24 hrs in dark by MTT assay relative to control. It counts as functional. To be noted: HCT-116, 24 h, read-out: Activity.
The subject of experiment [11] is HCT-116. As to the kind of experiment: Phototoxicity against human HCT116 cells assessed as cell viability at 10 uM incubated for 24 hrs under 17.5 mW/cm2 light irradiation by MTT assay relative to control. It counts as functional. To be noted: HCT-116, light or radiation study, read-out: Activity.
Experiment [12] deals with HCT-116. As to the kind of experiment: Induction of apoptosis in human HCT116 cells assessed as necrotic cells at 10 uM incubated for 24 hrs in presence of irradiation by annexin V FITC and propidium iodide based flow cytometry (reference value: 0.2 %). It counts as functional.
Experiment [13] relates to HCT-116. Nature of the experiment: Induction of apoptosis in human HCT116 cells assessed as viable cells at 50 uM incubated for 24 hrs in presence of irradiation by annexin V FITC and propidium iodide based flow cytometry (reference value: 94.8 %). It counts as functional. To be noted: HCT-116, light or radiation study, read-out: Activity.
Experiment [14] deals with HCT-116. As to the kind of experiment: Induction of apoptosis in human HCT116 cells assessed as early apoptotic cells at 50 uM incubated for 24 hrs in presence of irradiation by annexin V FITC and propidium iodide based flow cytometry (reference value: 3.4 %). It counts as functional.
The subject of experiment [15] is HCT-116. As to the kind of experiment: Induction of apoptosis in human HCT116 cells assessed as late apoptotic cells at 50 uM incubated for 24 hrs in presence of irradiation by annexin V FITC and propidium iodide based flow cytometry (reference value: 1.6 %). It counts as functional.
The target in experiment [16] is T1, DNA topoisomerase 1 (Homo sapiens). Nature of the experiment: Inhibition of recombinant human topoisomerase 1 assessed as supercoiled pBR322 DNA at 50 uM incubated for 1 hr by ethidium bromide staining based agarose gel electrophoresis method relative to control. More on the design: scale not given: the % may be the effect or the level left.
Experiment [17] deals with Calf thymus DNA. Nature of the experiment: Competitive binding affinity to calf thymus DNA assessed as binding constant in presence of ethidium bromide incubated for 10 mins by UV-visible spectrophotometry. To be noted: Bos taurus. It counts as nucleic-acid assay.
Experiment [18] relates to DNA. As to the kind of experiment: Induction of Escherichia coli plasmid pBR322 DNA cleavage assessed as increase in nicked circular DNA at 50 uM in presence of light irradiation and incubated for 1 hr by agarose gel electrophoresis. It counts as nucleic-acid assay.
For experiment [19], the system named is DNA. Nature of the experiment: Induction of Escherichia coli plasmid pBR322 DNA cleavage assessed as decrease in supercoiled DNA at 50 uM in presence of light irradiation and incubated for 1 hr by agarose gel electrophoresis. It counts as nucleic-acid assay.
Experiment [20] deals with DNA. Nature of the experiment: Induction of Escherichia coli plasmid pBR322 DNA cleavage assessed as linear form at 50 uM irradiated with light and incubated for 1 hr by agarose gel electrophoresis. It counts as nucleic-acid assay.
The subject of experiment [21] is DNA. As to the kind of experiment: Induction of Escherichia coli plasmid pBR322 DNA cleavage assessed as increase in nicked circular DNA in presence of light irradiation and incubated for 1 hr by agarose gel electrophoresis. It counts as nucleic-acid assay.
The subject of experiment [22] is HCT-116. As to the kind of experiment: Induction of apoptosis in human HCT116 cells assessed as viable cells at 5 uM incubated for 24 hrs in presence of irradiation by annexin V FITC and propidium iodide based flow cytometry (reference value: 94.8 %). It counts as functional. To be noted: HCT-116, light or radiation study, read-out: Activity.
In experiment [23] the test system is HCT-116. Nature of the experiment: Induction of apoptosis in human HCT116 cells assessed as early apoptotic cells at 5 uM incubated for 24 hrs in presence of irradiation by annexin V FITC and propidium iodide based flow cytometry (reference value: 3.4 %). It counts as functional.
The test system of experiment [24] is HCT-116. As to the kind of experiment: Induction of apoptosis in human HCT116 cells assessed as late apoptotic cells at 5 uM incubated for 24 hrs in presence of irradiation by annexin V FITC and propidium iodide based flow cytometry (reference value: 1.6 %). It counts as functional.
The subject of experiment [25] is HCT-116. As to the kind of experiment: Induction of apoptosis in human HCT116 cells assessed as necrotic cells at 5 uM incubated for 24 hrs in presence of irradiation by annexin V FITC and propidium iodide based flow cytometry (reference value: 0.2 %). It counts as functional.

`CC1=CC(/C=C/c2ccc(OCCCc3ccc[n+](C)c3)c(OCCCc3ccc[n+](C)c3)c2)=[N+]2C1=C(c1ccc(OCCCc3ccc[n+](C)c3)c(OCCCc3ccc[n+](C)c3)c1)c1c(C)cc(/C=C/c3ccc(OCCCc4ccc[n+](C)c4)c(OCCCc4ccc[n+](C)c4)c3)n1[B-]2(F)F.[I-].[I-].[I-].[I-].[I-].[I-]`: the Activity in [1] was 66%; in [3] it was 41.5%; in experiment [5], 100%; in [6], 64.2%; in [7], 81.8%; in [12] it was 0.1%. In addition, the Activity was found to be 4.8% in experiment [14], 1.4% in [15] and 69.5% in experiment [16]. Further, the result in experiment [2] and in experiment [4] was Active. Besides, the inhibition in [8] stood at 56.4%. Besides, in experiment [9], the outcome was inactive. Also, the viability at 10 µM in [10] is 96%; in [11], 99%. Also, the viability at 50 µM in [13] came out at 93.7%.

As for `CC1=CC(/C=C/c2ccc(OCCCc3ccc[n+](C)c3)cc2)=[N+]2C1=C(c1ccc(OCCCc3ccc[n+](C)c3)cc1)c1c(C)cc(/C=C/c3ccc(OCCCc4ccc[n+](C)c4)cc3)n1[B-]2(F)F.[I-].[I-].[I-]`, in [2], the outcome was Active. Besides, the result in [17], in experiment [18], in experiment [19], in experiment [20] and in [9] was inactive. Further, the Activity result in experiment [21] is “Dose-dependent effect”; in experiment [12], 3.4%; in experiment [23] it was 35.8%; in [24] it was 30.5%; in experiment [25], 10.7%. In experiment [8], the inhibition worked out at 54.6%. The values for the viability at 10 µM in [10] and in [11] were 88% and 10%, respectively. For the same molecule, the viability at 5 µM in experiment [22] turned out to be 23%.
